In US20080255121A1, “Combination Drug for Treating Autoimmune Disease” (DAINIPPON SUMITOMO PHARMA CO., LTD., priority 2004, published 2008):
Entries after “also recorded” stand apart in the source; their conditions may differ.

Columns and labels:
cyclin D1 = experiment: Expression of cyclin D1 in bFGF stimulated fibroblasts (Western blotting); type: cell-based, mouse; settings: Compound (I) 1.25 to 20 μM, KN-93 5 to 20 μM; L929 cells; FIG. 18
Experimental: (§1) Effects of Compound (I) and KN-93 on effect on the expression of cyclin D1 and the phosphorylation of Akt when fibroblasts were stimulated with basic fibroblast growth factor (bFGF) were evaluated.
(§2) L929 cells (mouse fibroblast cell line) were cultured in MEM-Earl medium (E-MEM: GIBCO, Inc.) containing 10% fetal bovine serum and subjected to the experiment. The cells were suspended in a serum-free E-MEM and cultured for 72 hours. An E-MEM medium containing the test substance was added and incubated for 1 hour, and an E-MEM medium containing recombinant human FGF basic (bFGF) as a stimulant was added and further incubated. The cells were lysed in a RIPA buffer and a total cell lysate was obtained. After performing SDS-PAGE, proteins were transferred onto a PVDF membrane and western blotting was performed with anti-cyclin antibody or anti-Akt antibody (both available from Santa Cruz, Inc.).

osteoclasts = experiment: Formation of osteoclasts from cells of collagen arthritis mouse leg (TRAP staining); type: cell-based; settings: Compound (I) 0.5 to 20 μM, KN-93 0.3 to 5 μM; nine days; FIG. 5
Experimental: Effects of Compound (I) and KN-93 on the formation of osteoclasts were evaluated.
A mouse leg affected with developed collagen arthritis was removed and treated in an α-MEM culture medium (GIBCO, Inc.) containing 10% fetal bovine serum in the presence of dispase (Godo Shuzo) and collagenase S1 (Nitta Gelatin Inc.) at 37° C. for five to six hours and monodisperse cell suspended liquid was collected. This sample was centrifuged, rinsed by resuspension and subjected to the experiment. The cells were disseminated in 96-well plate in a ratio of 2×10^4 cells/well, an α-MEM medium containing the test compound was added thereto and incubated for nine days. After the incubation, osteoclasts were stained with a kit (Sigma, Inc.) for TRAP staining and the number of the osteoclasts per well was measured by microscopic observation. The TRAP staining was carried out in accordance with instructions attached to the kit.

CaMKIIα derived from rat = target: T1, CaMKIIα derived from rat (Rattus norvegicus, UniProt P11275); experiment: Examination of CaMKII inhibitory activity (1), phosphorylation of Autocamtide-2; type: biochemical
T1 construct: purchased Santa Cruz, Inc
Experimental: Test substances were dissolved in DMSO and diluted to various concentrations with a buffer solution (50 mM Tris-HCl: pH 7.5, 10 mM MgCl2, 1 mM Dithiothreitol (DTT)) (all of them are available from Nacalai Tesque, Inc.) for CaMKII reaction. CaMKIIα (final concentration 0.75 μg/ml) (Santa Cruz, Inc.) derived from rat was mixed with Autocamtide-2® (40 μM) (CALBIOCHEM Company) dissolved in CaMKII reaction buffer solution in the presence of the test substance and with CaMKII activation buffer solution (1 mMCaCl2, 1 μM calmodulin) (Nacalai Tesque, Inc.) and the reaction was started by further adding ATP (50 μM) (Nacalai Tesque, Inc.). The reaction was performed at 30° C. for five minutes and then SDS-PAGE sample buffer solution was added and the reaction was terminated by boiling for five minutes. Proteins in the reaction mixture were separated by 15% SDS-PAGE and blotted onto a PVDF membrane. Phosphorus taken in by Autocamtide-2 was reacted with an anti-phosphorylated serine/threonine antibody (Santa Cruz, Inc.) and quantified by ECL system (Amersham, Inc.) and NIH Image (downloadable from http://rsb.info.nih.gov/nih-image/).

[1] = system: adjuvant-induced arthritis rats; experiment: Combination effect on adjuvant-induced arthritis (Example 19); type: in vivo, rat
Experimental: Combination effect for rat adjuvant-induced arthritis was examined in the same manner as in Example 17.
The volume of the left hind paw was measured by water replacement method just before the administration and after the last administration, and AUC (the area under the curve formed by plotting the difference of the value at the time of grouping from the value of each time point during the administration period against the time) of the increased volume of the left hind paw was determined. Joint destruction of the right hind paw (injected paw) and the left hind paw (non-injection paw) can be measured by X-ray and this can be also used as the index to evaluate the combination effect.

Akt = experiment: Phosphorylation of Akt in bFGF stimulated fibroblasts (Western blotting); type: cell-based, mouse; settings: Compound (I) 20 μM, KN-93 20 μM; L929 cells; FIG. 19
Experimental: as §1, §2

EL-4 cells = experiment: IL-2 production when T-lymphocytes were stimulated with PMA and A23187; type: cell-based, mouse; settings: Compound (I) 1 to 30 μM, KN-93 1 to 10 μM; 20 hours; FIG. 1
Experimental: Effects of Compound (I) and KN-93 on IL-2 production when T-lymphocytes were stimulated with Phorbol 12-myristate 13-acetate (PMA) and Calcium Ionophore A23187 were evaluated.
EL-4 cells (mouse T-lymphocyte cell line) were cultured in Dulbecco's Modified Eagle Medium (DMEM: GIBCO, Inc.) containing 10% fetal bovine serum and subjected to the experiment. The cells were disseminated in 96-well plate in a ratio of 5×10^4 cells/well and a DMEM medium containing the test substance and a DMEM medium containing PMA and A23187 as a stimulant were added and incubated for 20 hours. The concentration was adjusted so that the final concentrations of the test substances and stimulants were 1 to 30 μM for Compound (I), 1 to 10 μM for KN-93, 25 ng/ml for PMA and 250 ng/ml for A23187. The plate was centrifuged after incubation and the supernatant was collected with micropipette. The concentration of IL-2 in the supernatant was quantified by Enzyme-linked Immunosorbent Assay (ELISA) method. The quantitative method was carried out in accordance with the instructions attached to the kit (MOUSE IL-2 Immunoassay, R & D Systems).

[2] = system: collagen-induced arthritis rats; settings: reported in Patent Document 3 and Non-Patent Documents 3 to 5; cited from earlier work
SW982 cells = experiment: Proliferation of human synovial cells (Alamar Blue); type: cell-based; settings: Compound (I) 1 to 30 μM, KN-93 1 to 30 μM; FIG. 4
Experimental: Effects of Compound (I) and KN-93 on the proliferation of SW982 cells (human synovial cell line) were evaluated.
SW982 cells (human synovial cell line; obtained from ATCC) was cultured in a FCS (product of SIGMA, Inc.) containing DMEM medium (product of GIBCO, Inc.) and subjected to the experiment. SW982 was disseminated in 96-well flat bottom plate in the absence of serum in a ratio of 4×10^4 cells/well. Compounds were added at the same time of the dissemination of the cells and incubated at 200 μl cells/well. 20 μl of Alamar Blue® was added to each well (BIOSOURCE, Inc.) after 18 hours and incubated for further six hours and the absorbance of each well was measured with a microplate reader. The absorbance was measured at two wavelengths of 570 nm and 600 nm.

T1 sequence (P11275 whole entry): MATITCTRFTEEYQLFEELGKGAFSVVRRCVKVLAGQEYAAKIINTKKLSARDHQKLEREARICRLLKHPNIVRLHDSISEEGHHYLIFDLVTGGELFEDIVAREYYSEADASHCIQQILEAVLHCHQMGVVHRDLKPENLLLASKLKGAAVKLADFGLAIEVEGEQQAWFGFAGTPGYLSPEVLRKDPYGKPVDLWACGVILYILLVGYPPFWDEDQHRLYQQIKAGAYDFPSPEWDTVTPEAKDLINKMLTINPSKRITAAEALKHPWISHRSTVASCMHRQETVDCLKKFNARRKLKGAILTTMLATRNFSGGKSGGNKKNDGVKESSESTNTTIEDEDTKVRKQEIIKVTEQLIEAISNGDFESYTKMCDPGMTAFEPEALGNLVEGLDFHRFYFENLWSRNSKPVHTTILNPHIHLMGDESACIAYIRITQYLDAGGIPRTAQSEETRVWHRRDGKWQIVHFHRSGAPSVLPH

| Compound | enhanced expression of cyclin D1 (cyclin D1) | formation of osteoclasts (osteoclasts) | Inhibition rate (%) (CaMKIIα derived from rat; Concentration 0.1 μm) | Inhibition rate (%) (CaMKIIα derived from rat; Concentration 1 μm) | Inhibition rate (%) (CaMKIIα derived from rat; Concentration 10 μm) | increased volume and onset ratio of left hind paw ([1]; only Compound (I) 20 mg/kg oral once a day 17 days) | increased volume and onset ratio of left hind paw ([1]; only Compound (I) 40 mg/kg and 80 mg/kg oral once a day 17 days) | phosphorylation of Akt (Akt) | production of IL-2 (EL-4 cells) | effects on collagen-induced arthritis rats [2] | proliferation of SW982 cells (SW982 cells) |
| --- | --- | --- | --- | --- | --- | --- | --- | --- | --- | --- | --- |
| C[C@@H](c1ccc(-c2ccccc2)c(F)c1)c1cc(/N=C(/N)N2CCOCC2)on1 [Compound (I), 3-[(1S)-1-(2-fluorobiphenyl-4-yl)ethyl]-5-{[amino(morpholin-4-yl)methylene]amino}isoxazole] | suppressed the enhanced expression of cyclin D1 | dose-dependently suppressed the formation of osteoclasts | 39% | 47% | 85% | edema suppressing effect | onset suppressing effect and edema suppressing effect | suppressed the phosphorylation of Akt | suppressed production of IL-2 dose-dependently | anti-arthritis effects | dose-dependently suppressed the proliferation of human synovial cells; also recorded: almost completely suppressed |
| COc1ccc(S(=O)(=O)N(CCO)c2ccccc2CN(C)C/C=C/c2ccc(Cl)cc2)cc1 [KN-93, N-(2-[N-[4-chlorocinnamyl]-N-methylaminomethyl]phenyl)-N-(2-hydroxyethyl)-4-methoxybenzenesulfonamide, reference compound] | suppressed the enhanced expression of cyclin D1 | dose-dependently suppressed the formation of osteoclasts | 25% | 58% | 77% | – | – | suppressed the phosphorylation of Akt | suppressed production of IL-2 dose-dependently | – | dose-dependently suppressed the proliferation of human synovial cells; also recorded: almost completely suppressed |
